In the test the target is T1, human kinase Mps-1 (Homo sapiens, UniProt P33981).
T1 construct: N-terminally GST-tagged human full length recombinant Mps-1 kinase; GST (N); purchased Invitrogen, Karslruhe, Germany PV4071
T1 sequence (P33981 1-857): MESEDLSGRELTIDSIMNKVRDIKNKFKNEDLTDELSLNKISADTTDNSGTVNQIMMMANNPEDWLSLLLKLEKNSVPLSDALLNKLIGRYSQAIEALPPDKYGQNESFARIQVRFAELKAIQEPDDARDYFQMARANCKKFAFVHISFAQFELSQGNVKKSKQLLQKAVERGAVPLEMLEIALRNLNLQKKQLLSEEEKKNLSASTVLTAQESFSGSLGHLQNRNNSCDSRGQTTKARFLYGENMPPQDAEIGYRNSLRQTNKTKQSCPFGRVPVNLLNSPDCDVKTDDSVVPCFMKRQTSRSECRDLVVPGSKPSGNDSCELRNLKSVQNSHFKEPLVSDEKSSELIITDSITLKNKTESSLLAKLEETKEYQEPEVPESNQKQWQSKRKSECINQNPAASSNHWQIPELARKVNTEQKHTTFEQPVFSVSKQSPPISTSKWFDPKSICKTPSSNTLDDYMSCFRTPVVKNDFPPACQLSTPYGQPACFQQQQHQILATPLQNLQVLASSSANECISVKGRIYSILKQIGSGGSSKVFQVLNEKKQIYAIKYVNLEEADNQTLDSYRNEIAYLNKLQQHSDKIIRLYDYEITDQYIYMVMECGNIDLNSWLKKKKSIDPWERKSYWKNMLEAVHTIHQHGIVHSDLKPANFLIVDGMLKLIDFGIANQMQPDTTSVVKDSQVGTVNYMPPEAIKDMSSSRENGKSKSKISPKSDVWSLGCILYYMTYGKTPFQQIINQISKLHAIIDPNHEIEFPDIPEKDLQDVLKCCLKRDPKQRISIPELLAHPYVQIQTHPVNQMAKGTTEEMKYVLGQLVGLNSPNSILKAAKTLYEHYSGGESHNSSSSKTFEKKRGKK
Description: Mps-1 kinase assay (TR-FRET). Conditions: N-terminally GST-tagged human full length recombinant Mps-1; 10 μM ATP; 1 μM peptide substrate; 15 min pre-incubation; 60 min at 22° C. Format: biochemical. In short, it runs like this: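 N-terminally GST-tagged full-length recombinant human Mps-1, about 1 nM final, phosphorylates a biotinylated peptide. Product detected by TR-FRET from Eu-anti-phospho-Ser/Thr antibody to streptavidin-XLent after 1 h at 22° C.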
For orientation: TR-FRET usually uses a lanthanide donor and a delayed reading to cut background.

Counter-ions that a name gives are not always drawn.

Usually IC50 stands for the concentration that inhibits the measured activity by half. For the compound `O=C(NC1CC1)c1ccc(-c2cnc3c(NCC(F)(F)F)nc(-c4ccccc4)cn23)cc1` [Example 2-85, N-cyclopropyl-4-{6-phenyl-8-[(2,2,2-trifluoroethyl)amino]imidazo[1,2-a]pyrazin-3-yl}benzamide], the IC50 worked out at 2.8 nM. Then `O=C(NC1CC1)c1ccc(-c2cnc3c(NCCOCC(F)(F)F)nc(-c4ccccc4)cn23)cc1` [Example 2-88, N-cyclopropyl-4-(6-phenyl-8-{[2-(2,2,2-trifluoroethoxy)ethyl]amino}imidazo[1,2-a]pyrazin-3-yl)benzamide], with 3.6 nM; and `CC(C)CNc1nc(-c2ccccc2)c(Cl)n2c(-c3ccc(C(=O)NC4CC4)cc3)cnc12` [Example 3-1, 4-{5-chloro-8-[(2-methylpropyl)amino]-6-phenylimidazo[1,2-a]pyrazin-3-yl}-N-cyclopropylbenzamide], with 10.7 nM; and `CC(C)CNc1nc(-c2ccccc2)c(Br)n2c(-c3ccc(C(=O)NC4CC4)cc3)cnc12` [Example 4-1, 4-{5-bromo-8-[(2-methylpropyl)amino]-6-phenylimidazo[1,2-a]pyrazin-3-yl}-N-cyclopropylbenzamide], with 26.2 nM. Then `CC(C)CNc1nc(-c2ccccc2)c(F)n2c(-c3ccc(C(=O)NC4CC4)cc3)cnc12` [Example 5-1, N-cyclopropyl-4-{5-fluoro-8-[(2-methylpropyl)amino]-6-phenylimidazo[1,2-a]pyrazin-3-yl}benzamide], with 67 nM; and `CC(C)CNc1nc(-c2ccc(CCO)cc2)cn2c(-c3ccc(C(=O)NC4CC4)cc3)cnc12` [Example 6-1, N-cyclopropyl-4-{6-[4-(2-hydroxyethyl)phenyl]-8-(isobutylamino)imidazo[1,2-a]pyrazin-3-yl}benzamide], with 1 nM.

Take `CC(C)CNc1nc(-c2ccc(C3CC3)cc2)cn2c(-c3ccc(C(=O)NC4CC4)cc3)cnc12` [Example 7-1, N-cyclopropyl-4-[6-(4-cyclopropylphenyl)-8-(isobutylamino)imidazo[1,2-a]pyrazin-3-yl]benzamide]: the IC50 turned out to be 31.8 nM. Then `NCCCNc1nc(-c2ccccc2)cn2c(-c3ccc(C(=O)NC4CC4)cc3)cnc12` [Example 8-1, 4-{8-[(3-Aminopropyl)amino]-6-phenylimidazo[1,2-a]pyrazin-3-yl}-N-cyclopropylbenzamide hydrochloride], with 21.1 nM. Then `O=C(NC1CC1)c1ccc(-c2cnc3c(NCCCOC[C@@H](O)CO)nc(-c4ccccc4)cn23)cc1` [Example 9-1, N-cyclopropyl-4-{8-[(3-{[(2S)-2,3-dihydroxypropyl]oxy}propyl)amino]-6-phenylimidazo[1,2-a]pyrazin-3-yl}benzamide], with 3.4 nM. Then `Cc1cc(-c2cnc3c(NCCC(F)(F)F)nc(-c4ccc(F)cc4)cn23)ccc1C(=O)NC1CC1` [Example 10-1, N-cyclopropyl-4-{6-(4-fluorophenyl)-8-[(3,3,3-trifluoropropyl)amino]imidazo[1,2-a]pyrazin-3-yl}-2-methylbenzamide], with 3.6 nM. With `Cc1cc(-c2cnc3c(NCC4CCCO4)nc(-c4ccc(F)cc4)cn23)ccc1C(=O)NC1CC1` (stereo not drawn) [Example 10-2, N-cyclopropyl-4-{6-(4-fluorophenyl)-8-[(tetrahydrofuran-2-ylmethyl)amino]imidazo [1,2-a]pyrazin-3-yl}-2-methylbenzamide], the IC50 was found to be 9.1 nM.

Regarding `Cc1cc(-c2cnc3c(NCC(C)C)nc(-c4ccc(F)cc4)cn23)ccc1C(=O)NC1CC1` [Example 10-3, N-cyclopropyl-4-{6-(4-fluorophenyl)-8-[(2-methylpropyl)amino]imidazo[1,2-a]pyrazin-3-yl}-2-methylbenzamide], the IC50 worked out at 5.1 nM.

On to `Cc1cc(-c2cnc3c(NCCC(C)CO)nc(-c4ccc(F)cc4)cn23)ccc1C(=O)NC1CC1` (stereo not drawn) [Example 10-5, N-cyclopropyl-4-{6-(4-fluorophenyl)-8-[(4-hydroxy-3-methylbutyl)amino]imidazo[1,2-a]pyrazin-3-yl}-2-methyl-benzamide], for which the IC50 was found to be 4.8 nM. Then `Cc1cc(-c2cnc3c(NCC4CCC(C)(O)CC4)nc(-c4ccc(F)cc4)cn23)ccc1C(=O)NC1CC1` (stereo not drawn) [Example 10-7, N-cyclopropyl-4-[6-(4-fluorophenyl)-8-{[(4-hydroxy-4-methylcyclo-hexyl)methyl]amino}imidazo[1,2-a]pyrazin-3-yl]-2-methylbenzamide], with 5.4 nM; and `Cc1cc(-c2cnc3c(NCC4CCN(C)C4)nc(-c4ccc(F)cc4)cn23)ccc1C(=O)NC1CC1` (stereo not drawn) [Example 10-8, N-cyclopropyl-4-[6-(4-fluorophenyl)-8-{[(1-methylpyrrolidin-3-yl)methyl]amino}imidazo [1,2-a]pyrazin-3-yl]-2-methylbenzamide], with 119 nM; and `CCN1CCC(CNc2nc(-c3ccc(F)cc3)cn3c(-c4ccc(C(=O)NC5CC5)c(C)c4)cnc23)C1` (stereo not drawn) [Example 10-9, N-cyclopropyl-4-[8-{[(1-ethylpyrrolidin-3-yl)methyl]amino}-6-(4-fluorophenyl)imidazo [1,2-a]pyrazin-3-yl]-2-methylbenzamide], with 63.4 nM.

Regarding `Cc1cc(-c2cnc3c(NCCC4CC4)nc(-c4ccc(F)cc4)cn23)ccc1C(=O)NC1CC1` [Example 10-10, N-cyclopropyl-4-{8-[(2-cyclopropylethyl)amino]-6-(4-fluorophenyl)imidazo [1,2-a]pyrazin-3-yl}-2-methylbenzamide], the IC50 came out at 16.6 nM. Consider `Cc1cc(-c2cnc3c(NCC4CCOC4)nc(-c4ccc(F)cc4)cn23)ccc1C(=O)NC1CC1` (stereo not drawn) [Example 10-11, N-cyclopropyl-4-{6-(4-fluorophenyl)-8-[(tetrahydrofuran-3-yl-methyl)amino]imidazo [1,2-a]pyrazin-3-yl}-2-methylbenzamide], for which the IC50 was 3.3 nM. Then `Cc1cc(-c2cnc3c(NCCCC(C)O)nc(-c4ccc(F)cc4)cn23)ccc1C(=O)NC1CC1` (stereo not drawn) [Example 10-12, N-cyclopropyl-4-{6-(4-fluorophenyl)-8-[(4-hydroxypentyl)amino]imidazo[1,2-a]pyrazin-3-yl}-2-methylbenzamide], with 7.1 nM.

As to `Cc1cc(-c2cnc3c(NCC4CC(=O)N(C)C4)nc(-c4ccc(F)cc4)cn23)ccc1C(=O)NC1CC1` (stereo not drawn) [Example 10-13, N-cyclopropyl-4-[6-(4-fluorophenyl)-8-{[(1-methyl-5-oxopyrrolidin-3-yl)methyl]amino}imidazo[1,2-a]pyrazin-3-yl]-2-methylbenzamide], the IC50 was determined as 7.2 nM. Then `Cc1cc(-c2cnc3c(NCC4CCOCC4)nc(-c4ccc(F)cc4)cn23)ccc1C(=O)NC1CC1` [Example 10-14, N-cyclopropyl-4-{6-(4-fluorophenyl)-8-[(tetra-hydro-2H-pyran-4-ylmethyl)amino]imidazo [1,2-a]pyrazin-3-yl}-2-methylbenzamide], with 3.3 nM; and `CCC(C)c1cn2c(-c3ccc(C(=O)NC4CC4)cc3)cnc2c(NCC(C)C)n1` (stereo not drawn) [Example 11-1, 4-{6-(butan-2-yl)-8-[(2-methylpropyl)amino]imidazo[1,2-a]pyrazin-3-yl}-N-cyclopropylbenzamide], with 5.4 nM. For `CC(C)CNc1nc(C(C)C)cn2c(-c3ccc(C(=O)NC4CC4)cc3)cnc12` [Example 11-2, N-cyclopropyl-4-{8-[(2-methylpropyl)amino]-6-(propan-2-yl)imidazo[1,2-a]pyrazin-3-yl} benzamide], the IC50 was determined as 7.1 nM. Then `CCCc1cn2c(-c3ccc(C(=O)NC4CC4)cc3)cnc2c(NCC(C)C)n1` [Example 11-3, N-cyclopropyl-4-{8-[(2-methylpropyl)amino]-6-propylimidazo [1,2-a]pyrazin-3-yl}benzamide], with 5.4 nM.

(Values after patent US20140187548A1, “6 SUBSTITUTED IMIDAZOPYRAZINES FOR USE AS MPS-1 AND TKK INHIBITORS IN THE TREATMENT OF HYPERPROLIFERATIVE DISORDERS” (BAYER INTELLECTUAL PROPERTY GMBH, priority 2010, published 2014).)
